Two molecules from PMC9884808, “Pharmacokinetics, tissue distribution, and antitumor activity of a novel compound, NY-2, in non-small cell lung cancer” (Frontiers in Pharmacology, 2023) can be followed below.

“Also recorded” adds a separate entry of the source.

In one data set the test system is H1993. In words: MTT cytotoxicity assay, NSCLC cells. The settings on record: Homo sapiens, NCI-H1993, 48 h. The class given is cell-based. Here is the method:
(§1) The human colorectal cancer cell lines, HCT116 and LoVo, the breast cancer cell line, T47D, the hepatocellular carcinoma cell line, HepG2, the normal human liver cell line, HL7702, human umbilical vein endothelial cells (HUVECs), and the non-small cell lung cancer cell lines, A549, H1993, HCC827, H460, were purchased from the American Type Culture Collection (Manassas, VA, United States). Cell lines were cultured in the recommended RPMI-1640 medium (AE24464298, Hyclone, United States) and DMEM medium (AE29422278, Hyclone, United States) supplemented with 10% fetal bovine serum (FBS; JC63470, FB15015, Clark, United States) with 1% penicillin-streptomycin. Cells were maintained in an incubator at 37°C with 5% CO2 (HF90,Sanyo, Japan) and passaged every 48–72 h, after detaching with 0.25% trypsin (Sigma, United States). The compounds ZLDI-8 and NY-1 to -15 were synthesized in the laboratory of Dr. Huaiwei Ding in Shenyang Pharmaceutical University, and verified by high-performance liquid chromatography (purity >95%) for use in experiments (Supplementary Figure S1). Paclitaxel was purchased from MedChemExpress (HY-B0015, 99.97% purity, United States).
(§2) Cell viability was measured by the MTT assay. HCT116, HL7702, A549, H1993, HCC827, and H460 cells were dispensed into 96-well plates at a density of 1 × 10^5 cells/mL. After 24–48 h incubation, cells were treated with the compounds at different concentrations for the indicated periods. An assay kit (WLA073, Wanlei Co., Liaoning, China), was used according to the manufacturer’s instructions to measure LDH activity, The absorbance at 450 nm was measured with a microplate reader (Elx-800, Bio-Rad, China).
(§3) First, the effects of NY-2 and ZLDI-8 on the survival rates of four NSCLC cell lines, A549, H1993, HCC827, H460, were compared by the MTT cytotoxicity assay. The various types of NSCLC cells were incubated with increasing concentrations of NY-2 and ZLDI-8 (1.25, 2.5, 5, 10, and 20 μM), and the cell viability at 48 h was measured. […] Considering that the culture time might be too long, NY-2 was selected for 48 h treatment at increasing concentrations of 2.5, 5.0, and 10 μM as the experimental conditions for subsequent in vitro experiments.

The next data set relates to HCC827. Description: MTT cytotoxicity assay, NSCLC cells. Type of data set: cell-based. The settings on record: Homo sapiens, 48 h. The procedure:
as §1, §2, §3
(Tetrazolium dyes change colour on reduction, which living cells bring about.)

The next data set relates to H460. Description: MTT cytotoxicity assay, NSCLC cells. Type of data set: cell-based. The settings on record: Homo sapiens, NCI-H460, 48 h. The procedure:
as §1, §2, §3

Another data set relates to A549. Description: MTT cytotoxicity assay, NSCLC cells. The settings on record: Homo sapiens, 48 h. The class given is cell-based. The procedure: as §1, §2, §3
The nature of data set [1]: Pharmacokinetics in rats after tail vein injection. The class given is in vivo, Sprague-Dawley rats. The settings on record: for Cmax / half-life / MRT last / AUC(0-inf) / AUC(0-t): male, Sprague-Dawley, plasma; for MRT last: read-out: MRT0-t; for AUC(0-inf) / AUC(0-t): 6 mg/kg. From the text: We used the online ADME prediction tool Swiss AMDE (http://www.swissadme.ch/index.php) (SwissADME, 2017) to analyze the physicochemical descriptors and ADME parameters of NY-2 and ZLDI-8, to predict their pharmacokinetic properties, drug-like nature, and medicinal chemistry. […] Male Sprague-Dawley rats weighing 240 ± 20 g were purchased from Liaoning Changsheng Biotechnology Co., Ltd. (Liaoning, China, animal license #SCXK-2015-0001). Rats were used for the tissue distribution and pharmacokinetics experiments because of their larger body fluid volume. The rats were fasted for 12 h before the experiment but allowed to drink water freely. Animals were anesthetized with 4% chloral hydrate (0.5 mL/100 g), the total blood volume was collected from the abdominal aorta and quickly dispensed into heparinized EP tubes prepared in advance. The rats were euthanized after blood collection was completed. Plasma samples were subjected to a protein precipitation method for the quantitative analysis of ZLDI-8 and NY-2 by LC-MS/MS (API 3200MD, AB Sciex, United States). The samples were injected into the ionization source by the auto-sampler. A series of standard solutions of ZLDI-8 were prepared with final concentrations of 20, 50, 100, 250, 500, 1000, and 1500 ng/mL; and NY-2 was prepared with final concentrations of 100, 200, 500, 800, 1200, 1600, and 2000 ng/mL. The linear equation and correlation coefficient (r) of the regression curve were calculated from these concentrations and the corresponding absorption data. The specificity, lower limit of quantification (LLOQ), linear range, precision, accuracy, matrix effects, extraction recovery, stability of analytes during the whole process of storage, as well as treatment in a biological matrix and solution were determined to verify the reliability of the compound concentrations in vivo.
The plasma concentration-time concentration data of ZLDI-8 and NY-2 at different times were fitted by DAS2.0 pharmacokinetics software and the drug-time curve was drawn. The drug-time curves of the two compounds were compared and simulated, and a two-compartment model was selected to calculate the pharmacokinetic parameters using the statistical moment algorithm. The peak value (Cmax), half-life (t1/2), area under the curve (AUC0-t and AUC0-∞), plasma clearance rate (CL), mean retention time (MRT), and other parameters of the test data were expressed as mean ± SD. Statistical analyses were performed using GraphPad Prism 5 (GraphPad Software, San Diego, CA, United States), and all experiments were repeated at least three times. […] The experimental results are presented as mean ± SD or mean ± SEM, and significant differences are defined as p ≤ .05.
Plasma samples obtained after the SD rat tail vein injection of ZLDI-8 and NY-2 were processed and analyzed by HPLC-MS/MS, and the measured peak areas of ZLDI-8 and NY-2 were compared with the internal standard peak areas. The accompanying standard curves were used to calculate the plasma drug concentrations of each rat at different time points from the measured values. The plasma concentration-time data of ZLDI-8 and NY-2 at different times were fitted by DAS2.0 pharmacokinetic software, and the pharmacokinetic outcomes of the two compounds were obtained according to the two-compartment model and the pharmacokinetic parameters are shown in Table 2. The average plasma concentration-time curve after intravenous injection of 6 mg/kg compound ZLDI-8 and NY-2 was obtained by plotting the plasma concentrations against time.

In the next data set the test system is HCT116. In words: MTT cell viability assay. The class given is cell-based, human. The settings on record: Homo sapiens, HCT-116, HCT116 colorectal cancer cells. The procedure: as §1, §2
The preliminary antitumor activity of the series of ZLDI-8 derivatives, NY-1 to -15 was screened by the MTT cell viability assay. […] The antitumor activity of NY-2 on HCT116 cells was concentration- and time-dependent, and slightly better than that of the original compound, ZLDI-8.

Data set [2] concerns normal human liver cell line, HL7702. In words: MTT cytotoxicity on normal cells. The settings on record: 48 h; for cytotoxic effects on normal liver cells (HL7702): concentration ≤10 μM. Type of data set: cell-based. Here is the method: as §1, §2
First, the effects of NY-2 and ZLDI-8 on the survival rates of four NSCLC cell lines, A549, H1993, HCC827, H460, were compared by the MTT cytotoxicity assay. The various types of NSCLC cells were incubated with increasing concentrations of NY-2 and ZLDI-8 (1.25, 2.5, 5, 10, and 20 μM), and the cell viability at 48 h was measured. […]

[3] abbreviates: intravenous, rat, tail vein injection 6 mg/kg, mean ± SD, n = 6.
Where [4] appears, read: iv, rat, tail vein injection 6 mg/kg, mean ± SD, n = 6.
The mark [5] stands for this setting: rat, iv, intravenous injection 6 mg/kg.
Setting [6] is: rat, iv, tail vein injection 6 mg/kg, mean ± SD, n = 6.

As to `Cc1c(C=C2C(=O)NC(=S)NC2=O)c2ccccc2n1CCOc1ccc(F)cc1` [NY-2], the IC50 (usually the concentration needed to halve the response being measured) in the data set on H1993 came to 4.78 ± 0.64 µM; in the data set on HCC827, 5.98 ± 0.75 µM; in the data set with H460 it was 13.5 ± 0.58 µM; in the data set with A549, 8.95 ± 0.58 µM; in the data set with HCT116, 5.35 µM. In addition, the Cmax – broadly, the highest concentration seen after dosing – was determined as 2750 ng/mL in data set [1] (setting [3]) and 2750 ± 1110 ng/mL in data set [1] (setting [4]). Further, the half-life (usually how long it takes for the measured level to halve) in data set [1] (setting [4]) was 129 ± 37.2 min. Further, in data set [1] (setting [4]), the MRT last was determined as 64.2 ± 9.6 min. The values for the AUC(0-inf) in data set [1] (setting [5]) and in data set [1] (setting [6]) were 402 ng·h/mL and 402 ± 130 ng·h/mL, respectively. Besides, the AUC(0-t) (usually exposure summed from dosing to a finite time, without extrapolation to infinity) in data set [1] (setting [5]) amounted to 370 ng·h/mL; in data set [1] (setting [6]) it was 370 ± 111 ng·h/mL. Also, the “MRT0-t of NY-2 relative to ZLDI-8 (printed: lower)” value in data set [1] (rat, 6 mg/kg iv) worked out at 3.5 times. Besides, in data set [1] (rat, 6 mg/kg iv), the “plasma clearance (CL) of NY-2 as share of ZLDI-8's” value is reported as 22.2%. Further, the “t1/2 of NY-2 relative to ZLDI-8 (longer)” value in data set [1] (rat, 6 mg/kg iv) was “approximately 3.6 fold”. The “CLZ rate of NY-2 as fraction of that of ZLDI-8” value in data set [1] (rats) is 1/5. Besides, the “cytotoxic effects on normal liver cells (HL7702)” value in data set [2] was “neither ZLDI-8 nor NY-2 had any obvious cytotoxic effects on normal cells; also recorded: no obvious cytotoxic effects”. For the same molecule, in data set [2] (concentrations >10 μM), the “toxic effects on normal liver cells (HL7702)” value is recorded as “slightly weaker toxic effects than ZLDI-8”.
With `Cc1ccc(OCCn2c(C)c(C=C3C(=O)NC(=S)NC3=O)c3ccccc32)c(C)c1` [ZLDI-8, reference compound], the IC50 in the data set with H1993 was found to be 8.33 ± 1.01 µM; in the data set with HCC827 it was 9.39 ± 0.99 µM; in the data set with H460, 25.2 ± 2 µM; in the data set with A549 it was 23.1 ± 2.27 µM; with HCT116, 7.72 µM. For the same molecule, the Cmax worked out at 337 ng/mL in data set [1] (setting [3]) and 337 ± 19.4 ng/mL in data set [1] (setting [4]). This molecule had a half-life in data set [1] (setting [4]) of 35.4 ± 15.6 min. In addition, the MRT last in data set [1] (setting [4]) stood at 18.6 ± 1.2 min. Also, the AUC(0-inf) (usually total exposure, with the tail of the curve extrapolated) in data set [1] (setting [5]) amounted to 85.2 ng·h/mL; in data set [1] (setting [6]), 85.2 ± 26.3 ng·h/mL. Moreover, the values for the AUC(0-t) in data set [1] (setting [5]) and in data set [1] (setting [6]) were 58.8 ng·h/mL and 58.8 ± 4.62 ng·h/mL, respectively. The “cytotoxic effects on normal liver cells (HL7702)” value in data set [2] was “neither ZLDI-8 nor NY-2 had any obvious cytotoxic effects on normal cells”.
